Assay: Stress test at 45° C. of bulk Tibolone crystals (increase of Org OM38)
Assay type: physicochemical
Procedure: A solution of (7α, 17α)-3,3-dimethoxy-17-hydroxy-7-methyl-19-norpregn-5(10)-en20-yn-3-one (15 kg) in a mixture of pyridine (630 ml) and ethanol (315 liters) was mixed with a solution of oxalic acid (750 gr) in water (90 liters) and the mixture was stirred for 2 hours at approximately 30° C. The solution was poured out in a mixture of pyridine (1350 ml) and water (300 liters) and the resulting suspension was filtered. The crystals were washed with a mixture of water and pyridine and dried under vacuum at 40° C. to give (7α, 17α)-17-hydroxy-7-methyl-19-norpregn-5(10)-en-20-yn-3-one containing 0.6% of the corresponding (7α, 17α)-17-hydroxy-7-methyl-19-norpregn-4-en-20-yn-3-one as indicated by HPLC analysis; a stress test at 45° C. (duration 1 month) indicated a 0.4% increase of the latter compound.
A solution of (7α, 17α)-3,3-dimethoxy-17-hydroxy-7-methyl-19-norpregn-5(10)-en-20-yn-3-one (15 kg) in a mixture of pyridine (630 ml) and ethanol (315 liters) was mixed with a solution of oxalic acid (375 gr) in water (90 liters) and the mixture was stirred for 3 hours at approximately 30° C. The solution was poured out in a mixture of pyridine (1350 ml) and water (300 liters) and the resulting suspension is filtered. The crystals are washed with a mixture of water and pyridine and allowed to age for 3–6 days at room temperature. Subsequently, the crystals were dried under vacuum at 40° C. to give (7α, 17α)-17-hydroxy-7-methyl-19-norpregn-5(10)-en-20-yn-3-one containing≦0.1% of the corresponding (7α, 17α)-17-hydroxy-7-methyl-19-norpregn-4-en-20-yn-3-one as indicated by HPLC analysis; a stress test at 45° C. (duration 1 week) indicated a<0.1% increase of the latter compound.
The preparation as described in example 2 was repeated. (7α, 17α)-17-hydroxy-7-methyl-19-norpregn-5(10)-en-20-yn-3-one was obtained which contained 0.2% of the corresponding. (7α, 17α)-17-hydroxy-7-methyl-19-norpregn-4-en-20-yn-3-one as indicated by HPLC analysis; a stress test at 45° C. (duration 1 week) indicated a 0.1% increase of the latter compound.

SMILES	increase of (7α, 17α)-17-hydroxy-7-methyl-19-norpregn-4-en-20-yn-3-one in stress test (duration 1 week) [%]	increase of (7α, 17α)-17-hydroxy-7-methyl-19-norpregn-4-en-20-yn-3-one in stress test (duration 1 month) [%]
C#C[C@]1(O)CCC2C3C(CCC21C)C1=C(CC(=O)CC1)C[C@H]3C (single isomer, unassigned) [Example 3, (7α, 17α)-17-hydroxy-7-methyl-19-norpregn-5(10)-en-20-yn-3-one]	0.1	
C#C[C@]1(O)CCC2C3C(CCC21C)C1=C(CC(=O)CC1)C[C@H]3C (single isomer, unassigned) [Example 2, (7α, 17α)-17-hydroxy-7-methyl-19-norpregn-5(10)-en-20-yn-3-one]	< 0.1	
C#C[C@]1(O)CCC2C3C(CCC21C)C1=C(CC(=O)CC1)C[C@H]3C (stereo partly drawn) [Example 1, (7α, 17α)-17-hydroxy-7-methyl-19-norpregn-5(10)-en-20-yn-3-one]		0.4

Source: patent publication US6969708B1, “Process for the preparation of a high purity composition comprising (7α, 17α)- 17-hydroxy- 7-methyl- 19-nor-17-pregn-5(10)-en-20-yn-3-one” (Akzo Nobel N.V., priority 1998, dated 2005)
